Reference: patent US8258099B2, “Pin1-modulating compounds and methods of use thereof” (Max-Planck-Gesellschaft zur Foerderung der Wissenschaften …, priority 2004, dated 2012)
Square brackets hold non-standard residues; d marks the D form. Peptide text beside a SMILES is read from it. d(pT) = C[C@H](OP(=O)(O)O)[C@@H](N)C(=O)O; 2Nal = N[C@@H](Cc1ccc2ccccc2c1)C(=O)O; Pip = O=C(O)[C@@H]1CCCCN1

Assays:
full length hPin1 = target: T1, full length hPin1 (Homo sapiens, UniProt Q13526); assay: Isothermal titration calorimetry (ITC), full length hPin1; type: binding
T1 construct: The protease free assay ensures reliable measurement of IC50 values for the full-length hPin1
T1 sequence (Q13526 whole entry): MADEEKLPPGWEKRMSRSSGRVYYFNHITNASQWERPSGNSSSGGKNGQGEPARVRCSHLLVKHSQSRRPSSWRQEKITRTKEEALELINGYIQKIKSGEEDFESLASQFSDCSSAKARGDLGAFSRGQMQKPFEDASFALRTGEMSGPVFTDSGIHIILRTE
Experimental: FIGS. 3A-B depicts a thermodynamic characterization of the binding of peptide 17 towards full length hPin1 by isothermal titration calorimetry (ITC). FIG. 3A depicts peaks that represent the heat evolved after injection of peptide 17 into the sample cell containing hPin1. After the 11th injection only the heat of dilution is observed. The experiment was performed at 10 C. FIG. 3B depicts integrals of the corresponding peaks of panel A are plotted against the molar ratio of peptide 17 and hPin1. The solid line represents a nonlinear least squares fit analysis of the binding heat assuming a single binding site model with the following parameters: ΔHbind=−4561±36 cal/mol, TΔSbind=5433±529 cal/mol, n=0.96 (binding stoichiometry) and KAss=5.18×10^7±7×10^6 M^−1 (association constant).
Calorimetric experiments were performed using a VP-ITC titration calorimeter (MicroCal, Inc, Northampton, Mass.) at 10° C. All solutions were degassed under vacuum prior to use. Solutions of hPin1 and hPin1 PPIase domain were dialyzed against 10 mM Hepes (pH 7.8). The protein concentration in the sample cell was adjusted to 6.5 μM using the same batch of buffer. Protein concentrations were determined as described above. The volume of the protein solution in the sample cell was 1.4 ml. The injection syringe was filled with 300 μl solution of peptide 17 (see table III) (250 μM in the same batch of buffer as used for dialyses). Each titration experiment consisted of a single 1 μl injection followed by 16 identical injections of 5 μl solution of peptide 17.
In principle, minimally four forms of a competing substrate in the presence of hPin1 have to be considered, the free cis and trans isomers together with two Michaelis complexes. This four-site exchange model of PPIase catalysis involves understanding predisposing factors of the stability of hPin1/substrate complexes, expected to be weaker, than the stability for those formed by phosphopeptides lacking substrate properties. The consequent increase in inhibitory potency could be realized by a transition state destabilizing substitution in peptide 15. Previous studies have shown that following C^α-stereocenter inversion of a substrate at the P1 position the parvulins fully retain substrate-like active site affinity for the derivatives while catalytic rate acceleration is abolished (Schiene et al., 1998). […] To optimize solute diffusion after mechanical injection of the Pin1 binding peptides into the viscous Xenopus laevis egg cytosol, the molecular weight of 1376.5 for peptide 16 was reduced to 823.8 for peptide 17. Following chain truncation peptide 17 maintained high affinity for Pin1 (Table III). To ensure domain selectivity, the binding of peptide 17 towards hPin1 was characterized using the isothermal titration calorimetry (ITC). […] The dissociation constant determined with ITC is in the same range as obtained in the protease-free PPIase assay (Table III).

hCyp18 = hCyp18 (Homo sapiens, UniProt P62937); assay: Protease coupled PPIase assay, hCyp18; type: biochemical
Sequence of hCyp18 (P62937 whole entry): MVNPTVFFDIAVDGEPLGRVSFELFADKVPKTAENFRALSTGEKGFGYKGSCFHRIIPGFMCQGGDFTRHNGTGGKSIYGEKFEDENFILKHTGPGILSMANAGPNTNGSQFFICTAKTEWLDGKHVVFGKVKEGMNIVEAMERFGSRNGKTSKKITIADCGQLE
Experimental: (§1) PPIase activities were monitored on a Hewlett-Packard 8452A diode array spectrophotometer according to Fischer et al., 1984 and Zhang et al., 2002. The hPar14 PPIase activity was measured with Suc-Ala-Arg-Pro-Phe-NH-Np (SEQ ID NO: 3) (final concentration 75 μM) as substrate and α-chymotrypsin (final concentration 60 μM) as isomer specific protease. PPIase activity of hCyp 18 and FKBP12 were measured using Suc-Ala-Ala-Pro-Phe-NH-Np (SEQ ID NO: 7) as substrate (final concentration 16 μM) and α-chymotrypsin (final concentration 60 μM) as isomer specific protease. PPIase activity of hPin1 was measured with Ac-Ala-Ala-Ser(PO3H2)-Pro-Arg-NH-Np (SEQ ID NO: 4) (final concentration 10 μM) as substrate and trypsin (final concentration 60 μM) as isomer specific protease. […] Measurements were monitored at 390 nm.
(§2) Data analysis was performed by single-exponential nonlinear regression using the SigmaPlot Scientific Graphing System Version 5.00 (Jandel Corp.). […] The rate constant k0 was determined in the absence of Pin1. The first order rate constants kenz was calculated from the equation kenz=kobs−k0. IC50 and Ki values were determined by fitting the first order rate constants kenz against the concentration of the inhibitory peptide by nonlinear regression according to Schutkowski et al., 1995 or a model for tight binding inhibitors (Morrison, 1969).

hPar14 = hPar14 (Homo sapiens, UniProt Q9Y237); assay: Protease coupled PPIase assay, hPar14; type: biochemical; conditions: up to 50 μM
Sequence of hPar14 (Q9Y237 whole entry): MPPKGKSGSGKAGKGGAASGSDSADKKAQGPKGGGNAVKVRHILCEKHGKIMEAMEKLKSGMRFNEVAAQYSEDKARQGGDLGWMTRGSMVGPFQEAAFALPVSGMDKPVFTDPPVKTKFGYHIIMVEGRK
Experimental: FIG. 6 depicts the influence of peptide 17 on the hPar14 PPIase activity. The apparent first order rate constant kobs determined for the cis to trans isomerization of the arginyl-prolyl peptide bond of the substrate Suc-Ala-Arg-Pro-Phe-NH-Np (SEQ ID NO: 3) was measured using the protease coupled PPIase assay. α-Chymotrypsin was used as isomer specific protease. As control, the nonphosphorylated derivative of peptide 17 was used.
PPIase activities were monitored on a Hewlett-Packard 8452A diode array spectrophotometer according to Fischer et al., 1984 and Zhang et al., 2002. The hPar14 PPIase activity was measured with Suc-Ala-Arg-Pro-Phe-NH-Np (SEQ ID NO: 3) (final concentration 75 μM) as substrate and α-chymotrypsin (final concentration 60 μM) as isomer specific protease. PPIase activity of hCyp 18 and FKBP12 were measured using Suc-Ala-Ala-Pro-Phe-NH-Np (SEQ ID NO: 7) as substrate (final concentration 16 μM) and α-chymotrypsin (final concentration 60 μM) as isomer specific protease. PPIase activity of hPin1 was measured with Ac-Ala-Ala-Ser(PO3H2)-Pro-Arg-NH-Np (SEQ ID NO: 4) (final concentration 10 μM) as substrate and trypsin (final concentration 60 μM) as isomer specific protease. Final concentrations of the PPIases were 1.7 μM for hPar14, 4 nM for hPin1, 7 nM for FKBP12 and 9.7 nM for hCyp18. […] Measurements were monitored at 390 nm. […]

XlPin1 = assay: Protease free PPIase assay, XlPin1; type: biochemical, X. laevis
Experimental: Protein concentrations were determined using the extinction coefficient ε280=21030 M^−1 cm^−1 for hPin1, ε280=6979 M^−1 cm^−1 for the hPin1 PPIase domain, ε280=21030 M^−1 cm^−1 for XlPin1, ε280=8250 M^−1 cm^−1 for hPar14 and ε280=8250 M^−1 cm^−1 for hCyp18. Extinction coefficients were calculated using the program ProtParam Tool at ExPASy (SIB, Switzerland). All measurements were done at 10° C. in 35 mM Hepes buffer (pH 7.8).
The determination of the kinetic constants of the cis/trans isomerization within the protease-free system was performed using fluorescence based measurements (Garcia-Echeverria et al., 1993, Zhang et al., 2002) on a Hitachi F-3010 fluorescence spectrophotometer with H-Abz-Ala-Glu-Pro-Phe-NH-Np (SEQ ID NO: 2) as substrate. The substrate stock solution was 12 mM in anhydrous trifluoroethanol/0.55 M LiCl. […] The excitation wavelength was 320 nm (spectral bandwidth 3 nm) and emission was detected at 420 nm (spectral bandwidth 10 nm).
Data analysis was performed by single-exponential nonlinear regression using the SigmaPlot Scientific Graphing System Version 5.00 (Jandel Corp.). […] The rate constant k0 was determined in the absence of Pin1. The first order rate constants kenz was calculated from the equation kenz=kobs−k0. […]

FKBP12 = FKBP12 (Homo sapiens, UniProt P62942); assay: Protease coupled PPIase assay, FKBP12; type: biochemical
Sequence of FKBP12 (P62942 whole entry): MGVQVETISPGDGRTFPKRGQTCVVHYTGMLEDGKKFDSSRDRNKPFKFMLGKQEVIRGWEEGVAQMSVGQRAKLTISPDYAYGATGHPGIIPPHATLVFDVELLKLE
Experimental: as §1, §2

[1] = ITC, 10° C., single binding site model

CC(=O)N[C@@H](Cc1ccccc1)C(=O)N[C@@H](C(=O)N1CCCC[C@H]1C(=O)N[C@@H](Cc1ccc2ccccc2c1)C(=O)N[C@@H](CCC(N)=O)C(N)=O)[C@H](C)OP(=O)(O)O [Peptide 17, Ac-Phe-D-Thr(PO3H2)-Pip-Nal-Gln-NH2] (Ac-F[d(pT)][Pip][2Nal]Q-NH2)
Kd (full length hPin1): 19.3 ± 2.6 nM | KAss (association constant) (full length hPin1; [1]): 5.18e+07 ± 7e+06 M⁻¹ | binding enthalpy ΔHbind (full length hPin1; [1]): -4.561 ± 0.036 kcal/mol | binding entropy TΔSbind (full length hPin1; [1]): 5.433 ± 0.529 kcal/mol | n (binding stoichiometry) (full length hPin1; [1]): 0.96 | fold tighter binding of D isomer compared to L isomer (full length hPin1; Pin1): 30 fold | inhibition of Cyp18 (hCyp18): no inhibition | inhibition of hPar14 PPIase activity (hPar14): No inhibition | Ki (XlPin1; footnote b) (text of footnote not given), probably XlPin1): 34.4 nM | difference in affinity for recombinant Pin1 of both organisms (XlPin1; hPin1 versus XlPin1): no marked difference | inhibition of FKBP12 (FKBP12): no inhibition
